Results on six compounds are retold here after patent publication US20240109890A1, “BRIDGED HETEROCYCLYL-SUBSTITUTED PYRIMIDINE COMPOUNDS, PREPARATION METHOD AND MEDICAL USE THEREOF” (THE NATIONAL INSTITUTES OF PHARMACEUTICAL R&D CO., LTD., priority 2021, published 2024).

In one data set the target is JAK1 kinase (Homo sapiens (Human), UniProt P23458). In words: In vitro inhibitory activity on JAK1 kinase (ADP-Glo Kinase Assay). It is filed as biochemical. The conditions noted are these: JAK1 4 nM, 1 mM ATP, IRS1 substrate. On the procedure:
Experimental materials: JAK1 kinase (Invitrogen, PV4744), ATP (Promega, V915B), ADP-Glo Kinase Assay (Promega, V9101), IRS1 (Signalchem, 140-58-1000). Sample preparation: The compounds of the present invention and the control product were dissolved in DMSO solvent respectively to formulate into 10 mM mother liquor. The final reaction maximum concentration of the compound was 10 μM, 3-fold dilution, 10 concentration gradients, and duplicate wells for each concentration gradient. Experimental process: 0.1 μL of the compound to be tested was transferred into a 384-well reaction plate (PE, 6007290) via Echo and centrifuged at 1000 rpm/min for 1 min. 5 μL of JAK1 kinase (final concentration of 4 nM) was transferred into the 384-well reaction plate, which was then centrifuged at 1000 rpm/min for 1 min, and incubated at 25° C. for 15 min. 5 μL of substrate mixture (1 mM ATP, IRS1 0.05 mg/ml, kinase buffer solution) was transferred into the 384-well reaction plate, which was then centrifuged at 1000 rpm/min for 1 min, and incubated at 25° C. for 60 min. 10 μL of ADP-Glo was transferred into the 384-well reaction plate, which was then centrifuged at 1000 rpm/min for 1 min, and incubated at 25° C. for 40 min. 20 μL of test solution was transferred into the 384-well reaction plate, which was then centrifuged at 1000 rpm/min for 1 min and incubated at 25° C. for 40 min. RLU (Relative luminescence unit) signal was read by using an Envision multifunctional plate reader. The signal intensity was used to characterize the degree of the kinase activity. […] IC50 value of 0-100 nM is shown as A, IC50 value of 100-300 nM is shown as B, IC50 value of 300-1000 nM is shown as C, and IC50 value which is greater than 1000 nM is shown as D. NT means not tested.

The test system of data set [1] is IFN-2α-stimulated TYK2/JAK1-mediated pathway. In words: Inhibition of STAT3 signaling pathway of human whole blood (IFN-2α induced pSTAT3, flow cytometry). Format: cell-based. The following applies: IFN-2α stimulation, CD3/pSTAT3 staining. On the procedure:
Sample preparation: The compounds of the present invention and the control were dissolved in DMSO solvent respectively to formulate into 10 mM mother liquor. The final reaction maximum concentration of the compound was 10 μM, 3-fold dilution, 10 concentration gradients, and duplicate wells for each concentration gradient.
Experimental process: 20 μL of the compound of the present invention was added to a flow cytometer tube (BD, 352052) containing 180 μL of anticoagulant sodium heparin. 20 μL of PBS was added to the control tube. The sample was incubated at 37° C. for 30 min. 2 μL of stimulating factor was added and then incubated at 37° C. for 20 min. 1 mL of erythrocyte lysate was added, and the sample was repeatedly inverted 5 to 10 times or vortexed and then incubated at 37° C. for 10 min. The sample was centrifuged at 600 g for 6 to 8 min. The supernatant was discarded. The mixture was vortexed until the precipitate was suspended. The cells were washed with 3 mL of PBS and centrifuged at 600 g for 6 to 8 min. The supernatant was discarded. The mixture was vortexed until the precipitate was suspended. 1 mL of membrane breaking solution was added, and the system was mixed gently, incubated on ice for 30 min, and centrifuged at 600 g for 6 to 8 min. The supernatant was discarded. The mixture was vortexed until the precipitate was suspended. The cells were washed. 3 mL of PBS was added. […]

Data set [2] in a line: Pharmacokinetic study in rats. It is filed as in vivo, rat. The following applies: for F / AUC(0-t) / Cmax / half-life: male SD rats, i.v. 1 mg/kg, p.o. 5 mg/kg; for AUC(0-t) / Cmax / half-life: rat, plasma, route of this value not stated; for pharmacokinetic properties (overall statement): rats. On the procedure: Sample preparation: The compounds of Examples 1-a and 1-b were formulated into 0.2 mg/mL and 0.5 mg/mL solutions with 20% cyclodextrin.
Experimental method: Male SD rats (Beijing Vital River Laboratory Animal Technology Co., Ltd.) were used, the intravenous dose was 1 mg/kg (intravenously, i.v). Blood was collected from the canthus venous plexus before administration and at 0, 5 minutes, 15 minutes, 30 minutes, 1 hour, 2 hours, 4 hours, 6 hours and 8 hours after administration. The oral dose was 5 mg/kg (oral, p.o). Blood was collected from the canthus venous plexus before administration and at 15 minutes, 30 minutes, 1 hour, 2 hours, 4 hours, 6 hours and 8 hours after administration. The blood was anticoagulated with sodium heparin, centrifuged at 3500 rpm for 10 minutes at 4° C. The plasma was obtained and stored at −20° C. until testing.
50 μL of the plasma sample melted at room temperature was precisely measured and placed in a 1.5 mL EP tube, followed by adding 400 μL of verapamil internal standard working solution (China National Institute for Drug Control). The EP tube was vortexed vigorously for 1 minute, and centrifuged at 16000 rpm for 10 minutes. The supernatant was collected, filtered with a 0.22 μm organic membrane (AS081320-T, Agela Technologies), and added to an injection vial. The plasma concentration was obtained by LC/MS (Waters UPLC I Class/ TQ-S micro). The main pharmacokinetic parameters of compounds 1-a and 1-b in rats were obtained by DAS3.3.0 software.

Another data set relates to AIA model. In words: AIA pharmacodynamic study in rats (complete Freund's adjuvant, arthritis scoring). It is filed as in vivo, rat. The conditions noted are these: female Lewis rats, arthritis score; for efficacy in the AIA model versus reference PF-06700841: low dose 1 mg/kg and high dose 3 mg/kg groups. On the procedure: Experimental materials: Complete Freund's adjuvant (Chondrex, 7027); positive control compound PF-06700841, which has a structure of
Experimental process: The in vivo efficacy of the compounds of the present invention was investigated. 8-Week-old female Lewis rats (Beijing Vital River Laboratory Animal Technology Co., Ltd.) were subcutaneously injected with 0.1 mL of complete Freund's adjuvant at a single site on the base of their tails, and grouped 13 days after modeling. 8 groups were divided: the normal group, the model group, the PF-06700841 low dose group, the PF-06700841 high dose group, the compound 1-a low dose group, the compound 1-a high dose group, the compound 1-b low dose group, and the compound 1-b high dose group (the compounds to be tested were formulated into 0.1 mg/mL and 0.3 mg/mL solutions with 20% cyclodextrin solution). 20% cyclodextrin was administered to the model group, 1 mg/kg of the test compound was administered to the low dose group, and 3 mg/kg of the test compound was administered to the high dose group. The scores were evaluated every 2 days after administration. Scoring criteria: 0 point: no redness and swelling; 1 point: mild redness and swelling of ankle joints and wrist joints; 2 points: moderate redness and swelling of ankle joints and wrist joints; 3 points: severe redness and swelling of the paw including the fingertips; 4 points: maximal inflammation of the extremities, including multiple joints. The scoring results were analyzed by Graph prism9.0 software.
FIG. 1 is a graph showing the rat AIA pharmacodynamic scoring results of the compounds of the present invention.

JAK1 kinase, sequence (P23458 whole entry): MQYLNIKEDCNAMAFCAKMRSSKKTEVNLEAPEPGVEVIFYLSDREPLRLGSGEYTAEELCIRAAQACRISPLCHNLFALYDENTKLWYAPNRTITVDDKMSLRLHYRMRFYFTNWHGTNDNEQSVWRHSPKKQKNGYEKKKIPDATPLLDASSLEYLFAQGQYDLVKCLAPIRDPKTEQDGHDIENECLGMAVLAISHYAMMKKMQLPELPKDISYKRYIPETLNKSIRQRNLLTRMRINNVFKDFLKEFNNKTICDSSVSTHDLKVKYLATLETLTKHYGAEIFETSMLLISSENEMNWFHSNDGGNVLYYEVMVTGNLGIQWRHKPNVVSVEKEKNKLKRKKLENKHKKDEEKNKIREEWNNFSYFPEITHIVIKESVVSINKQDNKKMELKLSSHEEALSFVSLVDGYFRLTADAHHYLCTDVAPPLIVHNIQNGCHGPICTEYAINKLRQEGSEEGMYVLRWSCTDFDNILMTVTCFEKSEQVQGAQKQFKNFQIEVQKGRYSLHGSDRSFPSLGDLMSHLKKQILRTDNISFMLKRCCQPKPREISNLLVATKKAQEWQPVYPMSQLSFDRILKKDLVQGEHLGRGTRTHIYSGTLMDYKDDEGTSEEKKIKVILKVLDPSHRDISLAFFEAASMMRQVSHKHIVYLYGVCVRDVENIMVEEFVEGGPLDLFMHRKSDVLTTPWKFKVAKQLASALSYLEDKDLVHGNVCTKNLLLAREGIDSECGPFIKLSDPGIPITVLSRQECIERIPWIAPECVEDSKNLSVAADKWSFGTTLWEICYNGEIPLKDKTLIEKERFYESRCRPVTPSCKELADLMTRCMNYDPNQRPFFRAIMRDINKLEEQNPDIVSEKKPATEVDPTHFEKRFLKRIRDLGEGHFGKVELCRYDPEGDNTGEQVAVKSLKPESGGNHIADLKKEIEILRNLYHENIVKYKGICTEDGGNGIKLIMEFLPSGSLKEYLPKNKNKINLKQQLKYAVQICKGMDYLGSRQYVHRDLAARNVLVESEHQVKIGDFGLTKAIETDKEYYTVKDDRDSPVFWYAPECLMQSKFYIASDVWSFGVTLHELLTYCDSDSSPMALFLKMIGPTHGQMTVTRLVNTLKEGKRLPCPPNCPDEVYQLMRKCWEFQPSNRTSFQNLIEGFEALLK

With `Cn1cc(Nc2nccc(C3=CC4CCC(C3)N4C(=O)[C@H]3C[C@@H]3F)n2)cn1` (stereo partly drawn) [Compound 2, ((1R,2S)-2-fluorocyclopropyl)(3-(2-((1-methyl-1H-pyrazol-4-yl)amino)pyrimidin-4-yl)-8-azabicyclo[3.2.1]oct-2-en-8-yl)methanone], the IC50 at JAK1 kinase was 300 to 1000 nM.
Consider `Cn1cc(Nc2nccc(C3=C[C@@H]4CC[C@H](C3)N4C(=O)[C@H]3C[C@@H]3F)n2)cn1` [Compound 2-a, ((1R,2S)-2-fluorocyclopropyl)((1S,5R)-3-(2-((1-methyl-1H-pyrazol-4-yl)amino)pyrimidin-4-yl)-8-azabicyclo[3.2.1]oct-2-en-8-yl)methanone], for which the IC50 against JAK1 kinase was in the range of 300 to 1000 nM.
Turning to `Cn1cc(Nc2nccc(C3=C[C@H]4CC[C@@H](C3)N4C(=O)[C@@H]3C[C@H]3F)n2)cn1` [Compound 1-b, ((1S,2R)-2-fluorocyclopropyl)((1R,5S)-3-(2-((1-methyl-1H-pyrazol-4-yl)amino)pyrimidin-4-yl)-8-azabicyclo[3.2.1]oct-2-en-8-yl)methanone], the IC50 on JAK1 kinase is less than 100 nM. In data set [1], this compound gave a concentration for half-maximal inhibition (IC50) of less than 100 nM. Moreover, in data set [2], the F result is listed as “A (F>50% is shown as A)”, the AUC(0-t) was 500 to 1000 ng·h/mL, the Cmax is 300 to 500 ng/mL and the half-life is greater than 1 h. Besides, the “pharmacokinetic properties (overall statement)” value in data set [2] is recorded as “good pharmacokinetic properties”. Besides, in the data set with AIA model, the “efficacy in the AIA model versus reference PF-06700841” value is recorded as “significantly better than that of the reference PF-06700841”.
On to `Cn1cc(Nc2nccc(C3=C[C@@H]4CC[C@H](C3)N4C(=O)[C@@H]3C[C@H]3F)n2)cn1` [Compound 1-a, ((1S,2R)-2-fluorocyclopropyl)((1S,5R)-3-(2-((1-methyl-1H-pyrazol-4-yl)amino)pyrimidin-4-yl)-8-azabicyclo[3.2.1]oct-2en-8-yl)methanone], for which the IC50 at JAK1 kinase was less than 100 nM. Moreover, the IC50 in data set [1] was less than 100 nM. Besides, in data set [2], the F entry is given as “A (F>50% is shown as A)”, the AUC(0-t) was greater than 1000 ng·h/mL, the Cmax is greater than 500 ng/mL and the half-life is greater than 1 h. The “pharmacokinetic properties (overall statement)” value in data set [2] was “good pharmacokinetic properties”. In addition, the “efficacy in the AIA model versus isomer 1-b” value with AIA model (1 mg/kg and 3 mg/kg) is reported as “significantly better than that of isomer 1-b”. Also, in the data set on AIA model, the “efficacy in the AIA model versus reference PF-06700841” value was “significantly better than that of the reference PF-06700841”.
In turn, `Cn1cc(Nc2nccc(C3=C[C@H]4CC[C@@H](C3)N4C(=O)[C@H]3C[C@@H]3F)n2)cn1` [Compound 2-b, ((1R,2S)-2-fluorocyclopropyl)((1R,5S)-3-(2-((1-methyl-1H-pyrazol-4-yl)amino)pyrimidin-4-yl)-8-azabicyclo[3.2.1]oct-2-en-8-yl)methanone] displayed an IC50 on JAK1 kinase of 100 to 300 nM.
In turn, `Cn1cc(Nc2nccc(C3=CC4CCC(C3)N4C(=O)[C@@H]3C[C@H]3F)n2)cn1` (stereo partly drawn) [Compound 1, ((1S,2R)-2-fluorocyclopropyl)(3-(2-((1-methyl-1H-pyrazol-4-yl)amino)pyrimidin-4-yl)-8-azabicyclo[3.2.1]oct-2-en-8-yl)methanone] gave an IC50 at JAK1 kinase of less than 100 nM.
